Where “and” joins values, the source holds several entries; their conditions need not be identical. Equal entries are not always repeated. Where two headings read alike, the source gives them in different places.
Experiments:
ZIKV NS2B/NS3^pro [1] = biological target: T1, ZIKV NS2B/NS3^pro (Zika virus, UniProt A0A024B7W1); parameters: method as in PMID 28700665; conditions: cited from earlier work
Vero cells = test: Cell viability through MTT assay
trypsin = tested on: trypsin; parameters: method as in PMID 23124490; conditions: cited from earlier work
[2] = dose of administration 20 mg/kg, cited from earlier work
CHIKV nsP2^pro [3] = biological target: T2, CHIKV nsP2^pro (Chikungunya virus, UniProt Q8JUX6); test: Intrinsic Trp fluorescence titration (KD); conditions: Trp fluorescence quenching, ± STD
T2 sequence (Q8JUX6 1001-1333): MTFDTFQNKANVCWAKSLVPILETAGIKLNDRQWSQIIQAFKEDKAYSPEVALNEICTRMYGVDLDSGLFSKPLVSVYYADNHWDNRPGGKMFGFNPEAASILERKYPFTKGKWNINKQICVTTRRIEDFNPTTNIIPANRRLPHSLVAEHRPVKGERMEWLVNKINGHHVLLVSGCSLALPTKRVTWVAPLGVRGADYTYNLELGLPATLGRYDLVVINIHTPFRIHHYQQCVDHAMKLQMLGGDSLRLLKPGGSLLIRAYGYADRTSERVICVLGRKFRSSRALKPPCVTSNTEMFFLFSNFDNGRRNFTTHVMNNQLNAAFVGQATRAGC

CHIKV nsP2^pro [4] = biological target: T2, CHIKV nsP2^pro; test: Thermal unfolding by fluorescence spectroscopy; conditions: 10 µM protease, 75 µM ligand
ZIKV NS2B/NS3^pro [5] = biological target: T1, ZIKV NS2B/NS3^pro; test: ZIKV NS2B/NS3^pro inhibition assay, fluorogenic substrate Pyr-Arg-Thr-Lys-Arg-AMC; conditions: compound 20 µM
CHIKV [6] = test: Plaque reduction antiviral assay in Vero cells; conditions: ~50 PFU, two inhibitor concentrations
CHIKV [7] = conditions: cited from earlier work
[8] = cited from earlier work
CHIKV nsP2^pro [9] = biological target: T2, CHIKV nsP2^pro; test: CHIKV nsP2^pro FRET-based inhibition assay; type: biochemical; conditions: for % activity, mean / % inhibition, mean: mean n=3
[10] = cited from earlier work; remark: listed apart in the source
CHIKV nsP2^pro [11] = biological target: T2, CHIKV nsP2^pro; parameters: method as in PMID 32791353; conditions: cited from earlier work

T1 sequence (A0A024B7W1 1425-1464): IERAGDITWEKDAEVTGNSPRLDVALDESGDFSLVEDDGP
T1 sequence (A0A024B7W1 1503-1680): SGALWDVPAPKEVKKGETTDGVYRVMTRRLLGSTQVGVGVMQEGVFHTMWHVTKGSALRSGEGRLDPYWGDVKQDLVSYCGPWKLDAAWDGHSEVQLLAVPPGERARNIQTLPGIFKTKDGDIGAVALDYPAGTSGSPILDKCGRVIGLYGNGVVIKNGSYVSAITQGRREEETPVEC

O=c1cc(-c2ccc(O)c(O)c2)oc2cc(O)cc(O)c12 [Luteolin]
Inhibition mode (ZIKV NS2B/NS3^pro [1]): noncompetitive

COc1cc(-c2oc3cc(O)cc(O)c3c(=O)c2O)ccc1O [Isorhamnetin]
IC50 (ZIKV NS2B/NS3^pro [1]): 15.5 ± 0.7 µM
Inhibition mode (ZIKV NS2B/NS3^pro [1]): noncompetitive

COc1ccc([C@@H]2CC(=O)c3c(O)cc(O[C@@H]4O[C@H](CO[C@@H]5O[C@@H](C)[C@H](O)[C@@H](O)[C@H]5O)[C@@H](O)[C@H](O)[C@H]4O)cc3O2)cc1O [HSD, 3’,5,7-trihydroxy-4’-methoxy-flavanone-7-rhamnoglucoside]
Cytotoxic effect at the calculated IC50 concentrations (Vero cells; 2.3 to 300 µM, 2 days): no cytotoxic effect
50% cytotoxic concentration (Vero cells; 48 h, concentrations up to 300 µM): > 300 µM
IC50 (trypsin): 127 µM
AUC inf. [2]: 4.92 ± 0.38 µM·h
AUC last [2]: 4.12 ± 0.26 µM·h
Cl systemic clearance [2]: 112 ± 9.67 mL/min/kg
MRT mean residence time [2]: 4.22 ± 0.67 h
T1/2 elimination half-life [2]: 6.74 ± 0.79 h
Vd volume of distribution [2]: 64.58 ± 3.70 L/kg
C0 ([2]; read-out: Co initial concentration): 7.47 ± 1.64 µM
Kd (CHIKV nsP2^pro [3]): 40.7 ± 2 µM
Melting temperature (Tm) of protease-ligand complex (CHIKV nsP2^pro [4]): 52 °C
ΔTm (CHIKV nsP2^pro [4]): 5 °C
Inhibition of protease activity, preliminary inhibition test (ZIKV NS2B/NS3^pro [5]): not relevant inhibition
Antiviral activity, plaque reduction (CHIKV [6]): no antiviral activities
Intracellular replication of CHIKV (CHIKV [7]): inhibit
Potential maximal tolerated dose [8]: Citrus flavonoids are extremely safe and without side effects also up to high concentrations of 100 mg/kg to 500 mg/kg.
IC50 (CHIKV nsP2^pro [9]; 1 µM protease, 3 µM substrate, mean ± SD, n=3): < 10000 nM
LE (ligand efficiency) (CHIKV nsP2^pro [9]; (1.4*pIC50)/N): 0.17
% activity, mean (CHIKV nsP2^pro [9]; HSD 0.25 (µM)): 97.3333%
% inhibition, mean (CHIKV nsP2^pro [9]; HSD 0.25 (µM)): 2.667%
% activity, mean (CHIKV nsP2^pro [9]; HSD 0.5 (µM)): 90.3333%
% inhibition, mean (CHIKV nsP2^pro [9]; HSD 0.5 (µM)): 9.667%
inhibition at 0.5 µM (CHIKV nsP2^pro [9]; HSD 0.5 (µM), replicates A-C): 11%
% activity, mean (CHIKV nsP2^pro [9]; HSD 1 (µM)): 82%
% inhibition, mean (CHIKV nsP2^pro [9]; HSD 1 (µM)): 18%
% activity (CHIKV nsP2^pro [9]; HSD 1 (µM), replicates A-C): 84%
% inhibition (CHIKV nsP2^pro [9]; HSD 1 (µM), replicates A-C): 16%
inhibition at 1 µM (CHIKV nsP2^pro [9]; HSD 1 (µM), replicates A-C): 22%
% activity, mean (CHIKV nsP2^pro [9]; HSD 2.5 (µM)): 72.3333%
% inhibition, mean (CHIKV nsP2^pro [9]; HSD 2.5 (µM)): 27.6667%
inhibition at 2.5 µM (CHIKV nsP2^pro [9]; HSD 2.5 (µM), replicates A-C): 33%
% activity, mean (CHIKV nsP2^pro [9]; HSD 5 (µM)): 54.6667%
% inhibition, mean (CHIKV nsP2^pro [9]; HSD 5 (µM)): 45.3333%
inhibition at 5 µM (CHIKV nsP2^pro [9]; HSD 5 (µM), replicates A-C): 49%
% activity, mean (CHIKV nsP2^pro [9]; HSD 10 (µM)): 39.6667%
% inhibition, mean (CHIKV nsP2^pro [9]; HSD 10 (µM)): 60.3333%
inhibition at 10 µM (CHIKV nsP2^pro [9]; HSD 10 (µM), replicates A-C): 62%
% activity, mean (CHIKV nsP2^pro [9]; HSD 15 (µM)): 28.6667%
% inhibition, mean (CHIKV nsP2^pro [9]; HSD 15 (µM)): 71.3333%
% activity (CHIKV nsP2^pro [9]; HSD 15 (µM), replicates A-C): 30%
% inhibition (CHIKV nsP2^pro [9]; HSD 15 (µM), replicates A-C): 70%
inhibition at 15 µM (CHIKV nsP2^pro [9]; HSD 15 (µM), replicates A-C): 74%
% activity, mean (CHIKV nsP2^pro [9]; HSD 20 (µM)): 21%
% inhibition, mean (CHIKV nsP2^pro [9]; HSD 20 (µM)): 79%
inhibition at 20 µM (CHIKV nsP2^pro [9]; HSD 20 (µM), replicates A-C): 82%
% activity, mean (CHIKV nsP2^pro [9]; HSD 25 (µM)): 10.3333%
% inhibition, mean (CHIKV nsP2^pro [9]; HSD 25 (µM)): 89.6667%
inhibition at 25 µM (CHIKV nsP2^pro [9]; HSD 25 (µM), replicates A-C): 93%
% activity, mean (CHIKV nsP2^pro [9]; HSD 30 (µM)): 6%
% inhibition, mean (CHIKV nsP2^pro [9]; HSD 30 (µM)): 94%
inhibition at 30 µM (CHIKV nsP2^pro [9]; HSD 30 (µM), replicates A-C): 97%
% activity, mean (CHIKV nsP2^pro [9]; HSD 35 (µM)): 3%
inhibition at 35 µM (CHIKV nsP2^pro [9]; HSD 35 (µM), replicates A-C): 99%
% activity, mean (CHIKV nsP2^pro [9]; HSD 40 (µM)): 0.4%
% inhibition, mean (CHIKV nsP2^pro [9]; HSD 40 (µM)): 99.6%
inhibition at 40 µM (CHIKV nsP2^pro [9]; HSD 40 (µM), replicates A-C): 99.7%
inhibition at 45 µM (CHIKV nsP2^pro [9]; HSD 45 (µM), replicates A-C): 100%
IC50 (CHIKV nsP2^pro [9]; IC50, 1 µM protease, 3 µM substrate, mean ± SD, n=3): 7100 ± 1100 nM
IC50 (CHIKV nsP2^pro [9]; IC50, single replicate, HSD, single replicates A, B, C): 8.32 µM (2×) and 5.62 µM (2×) and 7.24 µM (2×)
Inhibition mode (CHIKV nsP2^pro [9]; Lineweaver-Burk plot): noncompetitive
IC50 (CHIKV nsP2^pro [9]; Log conc nM (IC50 determination triplicate), HSD, single replicates A, B, C): 8320 nM and 5620 nM and 7240 nM
IC50 (CHIKV nsP2^pro [9]; pIC50, from IC50 by online tool): 6310 nM
remaining activity at 0.25 µM (CHIKV nsP2^pro [9]; read-out: % activity, HSD 0.25 (µM), replicates A-C): 95%
remaining activity at 0.5 µM (CHIKV nsP2^pro [9]; read-out: % activity, HSD 0.5 (µM), replicates A-C): 89%
remaining activity at 1 µM (CHIKV nsP2^pro [9]; read-out: % activity, HSD 1 (µM), replicates A-C): 78%
remaining activity at 2.5 µM (CHIKV nsP2^pro [9]; read-out: % activity, HSD 2.5 (µM), replicates A-C): 67%
remaining activity at 5 µM (CHIKV nsP2^pro [9]; read-out: % activity, HSD 5 (µM), replicates A-C): 51%
remaining activity at 10 µM (CHIKV nsP2^pro [9]; read-out: % activity, HSD 10 (µM), replicates A-C): 38%
remaining activity at 15 µM (CHIKV nsP2^pro [9]; read-out: % activity, HSD 15 (µM), replicates A-C): 26%
remaining activity at 20 µM (CHIKV nsP2^pro [9]; read-out: % activity, HSD 20 (µM), replicates A-C): 18%
remaining activity at 25 µM (CHIKV nsP2^pro [9]; read-out: % activity, HSD 25 (µM), replicates A-C): 7%
remaining activity at 45 µM (CHIKV nsP2^pro [9]; read-out: % activity, HSD 45 (µM), replicates A-C): 0%
inhibition at 20 µM (CHIKV nsP2^pro [9]; read-out: Inhibition of protease activity, preliminary inhibition test, compound 20 µM): > 60%
Bioavailability [10]: limited bioavailability

O=c1cc(-c2ccc(O)cc2)oc2cc(O)cc(O)c12 [Apigenin]
IC50 (ZIKV NS2B/NS3^pro [1]): 56.3 ± 0.9 µM
Inhibition mode (ZIKV NS2B/NS3^pro [1]): noncompetitive

O=c1c(O)c(-c2cc(O)c(O)c(O)c2)oc2cc(O)cc(O)c12 [Myricetin]
IC50 (ZIKV NS2B/NS3^pro [1]): 1.3 ± 0.1 µM
Inhibition mode (ZIKV NS2B/NS3^pro [1]): noncompetitive

COc1cc(/C=C/C(=O)CC(=O)/C=C/c2ccc(O)c(OC)c2)ccc1O [Curcumin]
Inhibition mode (ZIKV NS2B/NS3^pro [1]): noncompetitive

CO[C@@H]1[C@@H](OC(N)=O)[C@@H](O)[C@H](Oc2ccc3c(O)c(NC(=O)c4ccc(O)c(CC=C(C)C)c4)c(=O)oc3c2C)OC1(C)C [Novobiocin]
IC50 (CHIKV nsP2^pro [11]): 2 µM

O=c1c(O)c(-c2ccc(O)c(O)c2)oc2cc(O)cc(O)c12 [Quercetin]
IC50 (ZIKV NS2B/NS3^pro [1]): 2.4 ± 0.2 µM
Inhibition mode (ZIKV NS2B/NS3^pro [1]): noncompetitive

CCCc1nc2c(C)cc(-c3nc4ccccc4n3C)cc2n1Cc1ccc(-c2ccccc2C(=O)O)cc1 [Telmisartan]
IC50 (CHIKV nsP2^pro [11]): 5 µM
